The subject of the test is DU145 xenografts. In words: DU145 xenograft in male nude mice. The format is in vivo. The following applies: PO Mon/Wed/Fri, vs vehicle. The text has this:
Male CD1 nude mice (Charles River, Milan, Italy) were maintained under the guidelines established by the University of L’Aquila, Medical School and Science and Technology School Board Regulations. Experiments on animals have been approved by your local IRB in compliance with the Italian government regulation n.116 January 27, 1992 for the use of laboratory animals which is line with ARRIVE guidelines. All mice received subcutaneous flank injections of 1 x 10^6 PC3, DU145 or 22v1 cells. Tumor growth was measured bi-weekly with a Vernier caliper (length x width). Tumor weight was calculated according to the formula: TW (mg) = tumor volume (mm^3) = d2 x D/2, where d and D are the shortest and longest diameters, respectively. The effects of the treatments were examined as previously described. […]
Mice were treated by oral gavage with either vehicle control (Pluronic F-68/PVP-K29/32), KPT330 or KPT251. […] In vivo, combinational studies were evaluated by CalcuSyn (Biosoft). For the calculation of CI, the values of cell kill for a fixed tumor volume were considered (determined by the log cell kill (LCK)). LCK was determined as LCKZ (TKC)/(3.3KTd), where Td represents the mean control group doubling time required to reach a fixed tumor volume, expressed in days, whereas T and C are the same values as described above. […]

For the molecule `FC(F)(F)c1cc(-c2ncn(/C=C\c3nnco3)n2)cc(C(F)(F)F)c1` [KPT-251], the tumor weight result is recorded as “reduce tumor weight in a dose-dependent manner”. In the case of `O=C(/C=C\n1cnc(-c2cc(C(F)(F)F)cc(C(F)(F)F)c2)n1)NNc1cnccn1` [KPT-330], the tumor weight result is given as “reduce tumor weight in a dose-dependent manner”.

(Values after paper PMC4666032, “KPT-330, a potent and selective exportin-1 (XPO-1) inhibitor, shows antitumor effects modulating the expression of cyclin D1 and survivin in prostate cancer models” (BMC Cancer, 2015).)
